Experiments:
[1] = tested on: CCl4-induced liver fibrosis; assay: Mouse carbon tetrachloride (CCl4)-induced liver fibrosis model; format: in vivo; details: for collagen deposition in the liver: as compared to the untreated group
Description: Female C57BL/6 mice (Harlan, 20-25 g) housed 4/cage are given free access to food and water and allowed to acclimate for at least 7 days prior to test initiation. After the habituation phase, mice receive CCl4 (0.5-1.0 ml/kg body weight) diluted in corn oil vehicle (100 μL volume) via i.p. injection twice a week for 4-6 weeks. (Higazi, A. A. et al., Clin Exp Immunol. 2008 April; 152(1):163-73. Epub 2008 Feb. 14). Control mice receive an equivalent volume of corn oil vehicle only. Test compound or vehicle is delivered po, ip or sc daily. At the end of the study (4-6 weeks after first i.p. injection of CCl4), mice are sacrificed using inhaled isoflurane and blood is drawn via cardiac puncture for subsequent analysis of ALT/AST levels. The liver is harvested, and one half of the liver is frozen at −80° C. and the other half is fixed in 10% neutral buffered formalin for histological assessment of liver fibrosis using light microscopy (10× magnification). Liver tissue homogenates are analyzed for collagen levels using Sircol (Biocolor Ltd, UK). Fixed Liver tissue is stained using hematoxylin and eosin (H&E) and trichrome and liver fibrosis is determined by quantitative, computer-assisted densitometry of collagen in liver tissue sections using light microscopy. Plasma and liver tissue lysates are also analyzed for concentrations of inflammatory, pro-fibrotic and tissue injury biomarkers including transforming growth factor β1, hyaluronic acid, tissue inhibitor of metalloproteinase-1, matrix matelloproteinase-7, connective tissue growth factor and lactate dehydrogenase activity, using commercially available ELISA. The resulting data are plotted using Graphpad prism and statistical differences between groups determined.

[2] = tested on: bleomycin-induced lung fibrosis; assay: Bleomycin-induced lung fibrosis model in mice; format: in vivo
Text: Female CD-1 mice (Harlan, 25-30 g) are housed 4 per cage, given free access to food and water and allowed to acclimate for at least 7 days prior to test initiation. After the habituation phase, mice are lightly anesthetized with isoflurane (5% in 100% O2) and administered with bleomycin sulfate (0.01-5 U/kg, Henry Schein) via intratracheal instillation (Cuzzocrea S et al. Am J Physiol Lung Cell Mol. Physiol. 2007 May; 292(5):[…]-104. Epub 2007 Jan. 12). Mice are returned to their cages and monitored daily for the duration of the experiment. Test compound or vehicle is delivered po, ip or sc daily. The route and frequency of dosing is based on previously determined pharmacokinetic properties. All animals are sacrificed using inhaled isoflurane 3, 7, 14, 21 or 28 days after bleomycin instillation. Following sacrifice, mice are intubated with a 20 gauge angiocatheter attached to a 1 ml syringe. Lungs are lavaged with saline to obtain bronchoalveolar lavage fluid (BALF) and then removed and fixed in 10% neutral buffered formalin for subsequent histopathological analysis. BALF is centrifuged for 10 min at 800×g to pellet the cells and the cell supernatant removed and frozen at -80° C. for subsequent protein analysis using the DC protein assay kit (Biorad, Hercules, Calif.) and soluble collagen analysis using Sircol (Biocolor Ltd, UK). BALF is analyzed for concentrations of inflammatory, pro-fibrotic and tissue injury biomarkers including transforming growth factor β1, hyaluronic acid, tissue inhibitor of metalloproteinase-1, matrix matelloproteinase-7, connective tissue growth factor and lactate dehydrogenase activity, using commercially available ELISA. The cell pellet is re-suspended in PBS. Total cell counts are then obtained using a Hemavet hematology system (Drew Scientific, Wayne, Pa.) and differential cells counts are determined using Shandon cytospin (Thermo Scientific, Waltham, Mass.). Lung tissue is stained using hematoxylin and eosin (H&E) and trichrome and lung fibrosis is determined by semiquantitative histopathological scoring (Ashcroft T. et al. J. Clin. Path. 1988; 41; 4, 467-470) using light microscopy (10× magnification) and quantitative, computer-assisted densitometry of collagen in lung tissue sections using light microscopy. The data are plotted using Graphpad prism and statistical differences between groups determined.

[3] = tested on: highly peritoneal metastatic pancreatic cancer cell line; details: cited from earlier work
[4] = tested on: pancreatic cancer cell lines; details: cited from earlier work
[5] = tested on: renal fibrosis; details: compared with LPA1 (−/−) mice, in which renal fibrosis was significantly attenuated; cited from earlier work
[6] = tested on: bone metastasis; details: cited from earlier work
[7] = chronic setting (14 and 28 day), single bleomycin (1.5 units/kg) instillation
[8] = chronic setting, repeated bleomycin (3.0-5.0 units/kg/week) instillations
[9] = chronic setting (14-days only), single bleomycin instillation (3.0 units)

Row | Compound | effect on collagen deposition compared with pirfenidone ([1]; 30 mg/kg, po, qd) | collagen deposition in the liver [1] | lactate dehydrogenase activity (LDH; tissue injury marker) in BALF ([2]; acute setting (3 day)) | tissue inhibitor of metalloproteinase-1 (TIMP-1; pro-fibrotic marker) concentrations in BALF ([2]; acute setting (3 day)) | total protein in broncheoalveolar lavage fluid (BALF) ([2]; acute setting (3 day)) | fibrosis [2, 7] | inflammatory cell influx [2, 7] | mouse body weight [2, 7] | lung fibrosis [2, 8] | pulmonary resistance [2, 8] | lactate in the BALF ([2]; acute setting (3-day)) | fibrosis [2, 9] | inflammatory cell influx [2, 9] | LPA-induced and ascites-induced invasion activity [3] | in vitro migration in response to LPA and peritoneal fluid (ascites) from pancreatic cancer patients [4] | development of renal fibrosis in UUO mice [5] | metastasis to bone in vivo [6]
1 | Cc1noc(-c2ccc(-c3ccc(CC(=O)O)cc3)cc2)c1NC(=O)O[C@H](C)c1ccccc1Cl [Compound 27, (4′-{4-[(R)-1-(2-Chloro-phenyl)-ethoxycarbonylamino]-3-methyl-isoxazol-5-yl}-biphenyl-4-yl)-acetic acid] | same effect | significantly reduced | significantly reduced | significantly reduced | significantly reduced | decreased | decreased | maintained | decreased | decreased |  |  |  |  |  |  | 
2 | Cc1noc(-c2ccc(-c3ccc(CC(=O)O)cc3)cc2)c1NC(=O)O[C@H](C)c1ccccc1 [Compound 37, {4′-[3-Methyl-4-((R)-1-phenyl-ethoxycarbonylamino)-isoxazol-5-yl]-biphenyl-4-yl}-acetic acid] |  | significantly reduced |  | reduced | reduced |  |  |  |  |  | reduced | decreased | decreased |  |  |  | 
3 | Cc1noc(-c2ccc(CSCCC(=O)O)cc2)c1NC(=O)OC(C)c1ccccc1Cl (centres unmarked) [Ki16425] |  |  |  |  |  |  |  |  |  |  |  |  |  | blocked | effectively blocked | closely resembled the LPA1 (−/−) mice | inhibit

From patent publication US8440707B2, “Antagonists of lysophosphatidic acid receptors” (Amira Pharmaceuticals, Inc., priority 2008, dated 2013)
